Common to all, as to test: NCI anticancer screen, dose series, 48 h
Assay [1] relates to A549 NSCLC.
Assay [2] deals with CAKI-1 renal.
The test system of assay [3] is CCRF-CEM leukemia.
Assay [4] has as its system EKVX NSCLC.
In assay [5] the test system is HCT-15 colon.
Assay [6] deals with HL-60(TB) leukemia.
Assay [7] deals with HOP-92 NSCLC.
Assay [8] deals with IGROV1 ovarian.
For assay [9], the system named is MDA-MB-231 breast.
The subject of assay [10] is MOLT-4 leukemia.
Assay [11] concerns NCI/ADR-RES ovarian.
Assay [12] relates to PC-3 prostate.
Assay [13] has as its system SF-268 CNS.
Assay [14] relates to SN12C renal.
For assay [15], the system named is U251 CNS.
Assay [16] has as its system UACC-257 melanoma.
Assay [17] has as its system UACC-62 melanoma.
The test system of assay [18] is SK-MEL-5 melanoma.
Assay [19] deals with HCC-2998 colon.

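Method: 48-hour compound exposure of cells in 96-well plates, five concentrations, linear interpolation of endpoints. TGI marks complete inhibition of growth.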 Some results are limits rather than exact numbers.

Consider `Cc1cccc(/C=C2\CCCc3ccccc3C2=O)c1`, for which the TGI in [1] is > 100 µM; in assay [2], > 100 µM; in assay [3], 35.1 µM; in assay [4], 57.1 µM; in assay [5], 44.9 µM; in assay [6], 29 µM. Moreover, the TGI is 58.5 µM in assay [7]; 59.6 µM in [8]; 48 µM in assay [9]; 68.6 µM in [10]; 69.2 µM in [11]; > 100 µM in [12]. The TGI in [13] was 29.6 µM; in assay [14], 38 µM; in assay [15] it was 48.5 µM; in assay [16], 61.8 µM; in assay [17] it was 27.5 µM.

With `COC(=O)Nc1nc2ccc(S(=O)(=O)n3nnc4ccccc43)cc2[nH]1`, the TGI in [1], in [2], in assay [3], in assay [4], in assay [5] and in assay [6] was > 100 µM in each case. In addition, the TGI in [7] was 35.8 µM; in [8], > 100 µM; in [9], > 100 µM; in [10], > 100 µM; in assay [11] it was > 100 µM; in assay [12], > 100 µM. Besides, the TGI in assay [13] is > 100 µM; in [18], > 100 µM; in assay [14], > 100 µM; in assay [15], > 100 µM; in assay [16] it was 43.9 µM; in assay [17], > 100 µM.

As to `CN(Cc1cnc2nc(N)nc(N)c2n1)c1ccc(C(=O)NCS(=O)(=O)O)cc1`, the TGI in [1], in assay [4], in assay [19], in assay [5], in assay [7] and in assay [8] was > 100 µM each time. The TGI in assay [9], in assay [10], in assay [11], in assay [12], in assay [13] and in [18] was > 100 µM throughout. For the same compound, the TGI in [14], in assay [15], in [16] and in assay [17] was > 100 µM throughout.

For `N#Cc1nc(COCc2ccccc2)oc1N`, the TGI in assay [1], in assay [2], in assay [3], in assay [4], in assay [19] and in assay [5] was > 100 µM in each case. Moreover, the TGI in assay [7], in [8], in assay [9], in [10], in assay [11] and in [12] was > 100 µM in each case. Further, the TGI in assay [13], in assay [14], in [15], in [16] and in assay [17] was > 100 µM in each case.

With `Cc1ccc(S(=O)(=O)/N=C(\N)N(C)N=O)cc1`, the TGI in assay [1], in assay [2], in assay [3], in assay [4], in assay [5] and in assay [6] was > 100 µM throughout. For the same compound, the TGI in assay [7], in assay [8], in [9], in assay [10], in [11] and in assay [12] was > 100 µM each time. The TGI in assay [13], in assay [14], in assay [15], in [16] and in assay [17] was > 100 µM in each case.

Consider `C=CCCCC1SC2=C(CC)CCCN2C1=O` (stereo unspecified), for which the TGI in assay [1], in assay [2], in [4], in [5], in assay [6] and in assay [7] was > 100 µM throughout. Also, the TGI in [8], in [9], in assay [10], in assay [11], in assay [12] and in assay [13] was > 100 µM throughout. The TGI in assay [18] was > 100 µM; in assay [14] it was > 100 µM; in assay [15] it was > 100 µM; in [16] it was 63.1 µM; in [17], > 100 µM.

Consider `Nc1ccc(N=Nc2ccc(-c3ccc(O)cc3)cc2)c2ccc(S(=O)(=O)O)cc12`, for which the TGI in assay [1], in assay [2], in assay [3], in [4], in assay [5] and in [6] was > 100 µM in each case. Further, the TGI in assay [7], in assay [8], in assay [9], in assay [10], in assay [11] and in [12] was > 100 µM throughout. In addition, the TGI in assay [13], in assay [18], in [14], in [15], in assay [16] and in assay [17] was > 100 µM each time.

For `Oc1ccc2oc3c(O)c4ccccc4cc3c2c1`, the TGI in assay [1] was > 100 µM; in assay [2], 68.7 µM; in assay [3] it was 8.47 µM; in [5] it was 21.3 µM; in assay [6], 13.5 µM; in [7], 41.6 µM. Moreover, the TGI in assay [8] is 4.21 µM; in assay [9], 36 µM; in [10], 11.9 µM; in assay [11], 9.74 µM; in [12], > 100 µM; in [13] it was 21.5 µM. The TGI in assay [18] was 7.5 µM; in assay [14], 8.32 µM; in assay [15] it was 21.1 µM; in assay [16], > 100 µM; in [17], 1.67 µM.

For `O=C(O)c1cc2cc(c1)N=Cc1ccccc1OCc1cccc(n1)COc1ccccc1C=N2`, the TGI in [1], in assay [3], in [4], in assay [5], in assay [6] and in assay [7] was > 25 µM throughout. Also, the TGI was > 25 µM in [8]; > 25 µM in assay [9]; > 25 µM in [10]; 15.4 µM in [11]; > 25 µM in assay [12]; > 25 µM in assay [13]. Also, the TGI in assay [14], in [15], in assay [16] and in assay [17] was > 25 µM throughout.

Turning to `O1C2C1C1OC1C1OC1C1OC21` (stereo unspecified), the TGI in assay [1], in assay [2], in assay [3], in [4], in [19] and in assay [5] was > 100 µM in each case. Besides, the TGI in assay [7], in assay [9], in assay [10], in assay [11], in [12] and in assay [13] was > 100 µM throughout. Besides, the TGI in assay [18], in assay [14], in assay [15], in assay [16] and in [17] was > 100 µM each time.

For the compound `COc1ccc(N=C2C(=Nc3ccc(OC)cc3)N(S(=O)(=O)c3ccccc3)C(=S)N2c2ccccc2)cc1`, the TGI in assay [1], in assay [2], in assay [4], in assay [19], in assay [5] and in [7] was > 100 µM in each case. The TGI in assay [8], in assay [9], in assay [10], in assay [11], in [12] and in assay [13] was > 100 µM in each case. The TGI in assay [18], in assay [14], in assay [15], in [16] and in [17] was > 100 µM throughout.

On to `COC(=O)C1C(OC(=O)C(Cl)(c2ccccc2)c2ccccc2)CC2CCC1N2C` (stereo unspecified), for which the TGI in [1], in [2], in assay [3], in [4], in assay [19] and in assay [5] was > 100 µM in each case. The TGI in assay [6], in assay [8], in assay [9], in assay [10], in assay [11] and in assay [12] was > 100 µM each time. The TGI in assay [13], in [18], in assay [14], in [15], in assay [16] and in [17] was > 100 µM in each case.

For the compound `CSC1=NC(C(N)=O)C(N)N1C` (stereo unspecified), the TGI in assay [1], in [2], in [3], in [4], in assay [5] and in assay [6] was > 100 µM each time. The TGI in assay [7], in assay [8], in assay [9], in assay [10], in assay [11] and in assay [12] was > 100 µM in each case. Moreover, the TGI in assay [13], in assay [18], in assay [14], in assay [15], in assay [16] and in [17] was > 100 µM each time.

`CN(C)c1nc2n(CCO)c(-c3ccccc3)c(-c3ccccc3)nc-2c(=O)n1`: the TGI in assay [1], in assay [2], in assay [3], in assay [4], in [19] and in assay [5] was > 100 µM throughout. For the same compound, the TGI in [7], in [8], in assay [9], in assay [10], in assay [11] and in [12] was > 100 µM in each case. Also, the TGI in assay [13], in assay [18], in [14], in assay [15], in assay [16] and in assay [17] was > 100 µM throughout.

Regarding `C=CCC(CC=O)(C(=O)OCC)C(=O)OCC`, the TGI in assay [1], in assay [2], in assay [3], in assay [4], in [5] and in assay [6] was > 100 µM each time. In addition, the TGI in [7], in assay [8], in assay [9], in assay [10], in assay [11] and in [12] was > 100 µM in each case. Besides, the TGI in [13], in assay [18], in [14], in assay [15], in assay [16] and in assay [17] was > 100 µM each time.

With `C=C1CCCCCCCCCCC12SCCC2CCCCSC` (stereo unspecified), the TGI in assay [1] was > 100 µM; in assay [4], 86.4 µM; in assay [19], 39.2 µM; in [5], 73.4 µM; in [6], 44.7 µM; in assay [7], 62.5 µM. For the same compound, the TGI stood at 49.9 µM in assay [8]; 39 µM in assay [9]; 40.1 µM in assay [10]; 46.2 µM in assay [11]; 56.1 µM in [12]; 67.4 µM in assay [13]. Also, the TGI in assay [18] came to 33.1 µM; in [14] it was 53.9 µM; in [15] it was 33.8 µM; in assay [16], 52.8 µM; in [17] it was 76 µM.
